Calls of active or inactive are those of the source. No cut-off for these calls is given here.
Experiments:
Hepatitis C virus [1] = assay: Antiviral activity against HCV infected in human Huh7.5 cells incubated for 72 hrs by in-cell western assay; format: functional, organism-based, Hepacivirus hominis; settings: Huh7.5, 72 h
[2] = Cytotoxicity against human Huh7.5 cells assessed as reduction in cell viability incubated for 96 hrs by MTT assay; format: toxicity, cell-based, Huh-7.5; settings: Huh7.5 cells
[3] = Selectivity index, ratio of CC50 for cytotoxicity against human Huh7.5.1 cells to EC50 for antiviral activity against HCV infected in human Huh7.5.1 cells; format: toxicity, cell-based; settings: read-out: Ratio CC50/EC50
[4] = target: Histamine H1 receptor (Homo sapiens) (UniProt P35367); assay: Antagonist activity against H1 receptor (unknown origin) expressed in HEK cells at 1 uM relative to control; format: functional, cell-based
Sequence of Histamine H1 receptor (Homo sapiens) (P35367 whole entry): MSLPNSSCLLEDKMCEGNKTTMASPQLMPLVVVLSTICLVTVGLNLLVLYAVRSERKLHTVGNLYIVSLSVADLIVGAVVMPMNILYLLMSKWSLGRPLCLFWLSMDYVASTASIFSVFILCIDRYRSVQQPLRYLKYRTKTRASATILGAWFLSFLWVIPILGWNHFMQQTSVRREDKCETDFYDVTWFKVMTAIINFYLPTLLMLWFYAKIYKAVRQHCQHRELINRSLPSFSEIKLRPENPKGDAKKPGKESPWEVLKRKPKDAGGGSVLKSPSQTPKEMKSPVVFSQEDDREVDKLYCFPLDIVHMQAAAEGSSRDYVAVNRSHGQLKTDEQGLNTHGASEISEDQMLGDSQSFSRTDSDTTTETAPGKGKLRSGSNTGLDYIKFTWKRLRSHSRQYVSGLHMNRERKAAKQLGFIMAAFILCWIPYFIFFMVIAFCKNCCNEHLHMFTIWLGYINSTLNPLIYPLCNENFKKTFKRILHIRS

Hepatitis C virus [5] = assay: Antiviral activity against HCV infected in human Huh7.5 cells assessed as reduction in viral RNA level measured after 72 hrs by RT-qPCR analysis; format: functional, organism-based; settings: Hepacivirus hominis
[6] = Cmax in Sprague-Dawley rat at 15 mg/kg, po administered as single dose measured upto 24 hrs by LC-MS/MS analysis; format: ADME, organism-based; design: route oral, dose 15 mg/kg, time <=24; settings: in vivo
[7] = Plasma concentration in Sprague-Dawley rat at 15 mg/kg, po administered as single dose measured up to 24 hrs by LC-MS/MS analysis; format: ADME, organism-based
[8] = Cytotoxicity against human Huh7.5 cells carrying HCV subgenomic replicons assessed as reduction in cell viability incubated for 96 hrs by MTT assay; format: toxicity, cell-based, Huh-7.5
Hepatitis C virus [9] = assay: Antiviral activity against HCV infected in human Huh7.5 cells assessed as reduction in HCV core protein expression pre-infected with virus for 2 hrs followed by compound addition and measured after 72 hrs by Western blotting analysis; format: functional, organism-based; settings: Hepacivirus hominis
Hepatitis C virus [10] = assay: Antiviral activity against HCVcc infected in human Huh7.5 cells assessed as inhibition of viral replication; format: functional, organism-based, Hepacivirus hominis
[11] = Tmax in Sprague-Dawley rat at 15 mg/kg, po administered as single dose measured upto 24 hrs by LC-MS/MS analysis; format: ADME, organism-based; settings: in vivo
Hepatitis C virus [12] = assay: Antiviral activity against HCV infected in human Huh7.5 cells assessed as reduction in HCV core protein expression at 6.4 nM incubated for 72 hrs by in-cell western assay; format: functional, organism-based; settings: Hepacivirus hominis
Hepatitis C virus [13] = assay: Antiviral activity against HCV infected in human Huh7.5 cells assessed as reduction in viral RNA level preincubated for 2 hrs prior to viral infection and measured after 72 hrs by RT-qPCR analysis; format: functional, organism-based; settings: Hepacivirus hominis, time 74.0 hrs
Hepatitis C virus [14] = assay: Antiviral activity against HCV infected in human Huh7.5 cells assessed as reduction in viral RNA level pre-infected with virus for 2 hrs followed by compound addition and measured after 72 hrs by RT-qPCR analysis; format: functional, organism-based; settings: Hepacivirus hominis
Hepatitis C virus [15] = assay: Antiviral activity against HCV infected in human Huh7.5 cells assessed as reduction in HCV core protein expression measured after 72 hrs by Western blotting analysis; format: functional, organism-based; settings: Hepacivirus hominis
Hepatitis C virus [16] = assay: Antiviral activity against HCV infected in human Huh7.5 cells carrying HCV subgenomic replicons assessed as inhibition of viral replication; format: functional, organism-based, Hepacivirus hominis
[17] = MRT in Sprague-Dawley rat at 15 mg/kg, po administered as single dose measured upto 24 hrs by LC-MS/MS analysis; format: ADME, organism-based; settings: in vivo
[18] = Half life in Sprague-Dawley rat at 15 mg/kg, po administered as single dose measured upto 24 hrs by LC-MS/MS analysis; format: ADME, organism-based; settings: in vivo
[19] = Cytotoxicity against human Huh7.5 cells infected with HCVcc assessed as reduction in cell viability incubated for 96 hrs by MTT assay; format: toxicity, cell-based, Huh-7.5
Hepatitis C virus [20] = assay: Antiviral activity against HCV infected in human Huh7.5 cells assessed as reduction in HCV core protein expression preincubated for 2 hrs followed by viral infection and measured after 72 hrs by Western blotting analysis; format: functional, organism-based; settings: Hepacivirus hominis, time 74.0 hrs
[21] = AUC (0 to infinity) in Sprague-Dawley rat at 15 mg/kg, po administered as single dose measured upto 24 hrs by LC-MS/MS analysis; format: ADME, organism-based; design: route oral, dose 15 mg/kg, time <=24; settings: in vivo
Hepatitis C virus [22] = assay: Antiviral activity against HCV infected in human Huh7.5 cells carrying HCV subgenomic replicons assessed as inhibition of viral replication at 1.4 uM; format: functional, organism-based; settings: Hepacivirus hominis
Hepacivirus hominis = assay: Binding affinity to HCV E1 protein at 12.5 to 200 uM by SPR analysis; settings: dose 12.5-200 µM
[23] = Selectivity index, ratio of CC50 for cytotoxicity against human Huh7.5 cells infected with HCVcc to EC50 for antiviral activity against HCVcc infected in human Huh7.5 cells; format: toxicity, cell-based; settings: read-out: Ratio CC50/EC50

With `CN1CCCN(c2ccc(C#N)c(CN3CCN(C(=O)c4ccc(F)cc4)CC3)c2)CC1` as the compound, how does the EC50 (Hepatitis C virus [1]) read?
Its EC50 is greater than 4 µM.

And the CC50 at 96 h [2]?
Its CC50 at 96 h is 13.8 µM.

For `CC(c1ccccc1)N1CCN(Cc2cc(N(C)CCN(C)C)ccc2C#N)CC1` (stereo not given), which EC50 (Hepatitis C virus [1]) is on record?
Its EC50 is 1.03 µM.

What about the selectivity ratio [3] of the same compound?
The selectivity ratio was 43.

What about the CC50 at 96 h [2] of the same compound?
Its CC50 at 96 h is 44.1 µM.

For `CN(C)CCN(C)c1ccc(C#N)c(CN2CCN([C@H](c3ccccc3)c3ccc(Cl)cc3)CC2)c1`, which EC50 (Hepatitis C virus [1]) is on record?
The EC50 was 0.01 µM.

What about the selectivity ratio [3] of the same compound?
The selectivity ratio was 823.

And the CC50 at 96 h [2]?
Its CC50 at 96 h is 8.23 µM.

For `CN1CCCN(c2ccc(C#N)c(CN3CCN(C(c4ccc(F)cc4)c4ccc(F)cc4)CC3)c2)CC1`, which Activity [4] is on record?
Its Activity is “inactive”.

And the Activity (Hepatitis C virus [5])?
The Activity was “inactive”.

And the Cmax [6]?
Its Cmax is 78 ng/mL.

What about the concentration at 24 h [7] of the same compound?
The concentration at 24 h was 4.98 ng/mL.

And the CC50 at 96 h [8]?
Its CC50 at 96 h is 3.95 µM.

And the Activity (Hepatitis C virus [9])?
Its Activity is “Active”.

What about the EC50 (Hepatitis C virus [10]) of the same compound?
Its EC50 is 0.00289 µM.

What about the Tmax [11] of the same compound?
The Tmax was 2.69 h.

What about the EC50 (Hepatitis C virus [1]) of the same compound?
The EC50 was 0.005 µM.

And the Activity (Hepatitis C virus [12])?
The Activity was “Active”.

And the Activity (Hepatitis C virus [13])?
Its Activity is “inactive”.

What about the Activity (Hepatitis C virus [14]) of the same compound?
Its Activity is “Active”.

What about the Activity (Hepatitis C virus [15]) of the same compound?
The Activity was “Active”.

And the EC50 (Hepatitis C virus [16])?
Its EC50 is greater than 1.6 µM.

And the selectivity ratio [3]?
The selectivity ratio was 1130.

And the MRT [17]?
The MRT was 9.43 h.

What about the half-life [18] of the same compound?
Its half-life is 5.66 h.

What about the CC50 at 96 h [19] of the same compound?
Its CC50 at 96 h is 3.31 µM.

And the Activity (Hepatitis C virus [20])?
The Activity was “inactive”.

What about the AUC(0-inf) [21] of the same compound?
Its AUC(0-inf) is 639 ng·h/mL.

And the Activity (Hepatitis C virus [22])?
The Activity was “inactive”.

What about the CC50 at 96 h [2] of the same compound?
Its CC50 at 96 h is 6.24 µM.

What about the Activity (Hepacivirus hominis) of the same compound?
Its Activity is “Active”.

And the selectivity ratio [23]?
The selectivity ratio was 1140.

Which results are given for `COCCOc1ccc(C#N)c(CN2CCN(c3ccc(C(F)(F)F)cc3)CC2)c1`?
EC50 (Hepatitis C virus [1]): 1.52 µM; CC50 at 96 h [2]: 2.97 µM

Which inhibition ([4]; filed as antagonist) does the source give for `CN1CCN(C(c2ccccc2)c2ccc(Cl)cc2)CC1` (stereo not given) [CHLORCYCLIZINE] here?
Its inhibition is 99%.

What about the CC50 at 96 h [8] of the same compound?
Its CC50 at 96 h is 30.2 µM.

What about the EC50 (Hepatitis C virus [10]) of the same compound?
The EC50 was 0.0676 µM.

What about the Activity (Hepatitis C virus [12]) of the same compound?
The Activity was “inactive”.

And the EC50 (Hepatitis C virus [16])?
The EC50 was greater than 1.6 µM.

And the CC50 at 96 h [19]?
The CC50 at 96 h was 30.8 µM.

And the selectivity ratio [23]?
The selectivity ratio was 456.

What does the source list for `N#Cc1ccc(NCCCn2ccnc2)cc1CN1CCN(C(c2ccccc2)c2ccccc2)CC1`?
EC50 (Hepatitis C virus [1]): 0.243 µM; selectivity ratio [3]: > 82; CC50 at 96 h [2]: > 20 µM

For `CN1CCCN(c2ccc(C#N)c(CN3CCN(Cc4ccccc4)CC3)c2)CC1`, which EC50 (Hepatitis C virus [1]) is on record?
The EC50 was 21.1 µM.

What about the CC50 at 96 h [2] of the same compound?
The CC50 at 96 h was greater than 100 µM.

With `CC(c1ccccc1)N1CCN(Cc2cc(N3CCCN(C)CC3)ccc2C#N)CC1` (stereo not given) as the compound, how does the EC50 (Hepatitis C virus [1]) read?
The EC50 was 0.956 µM.

What about the selectivity ratio [3] of the same compound?
The selectivity ratio was 33.

What about the CC50 at 96 h [2] of the same compound?
Its CC50 at 96 h is 31.3 µM.

For `COCCOc1ccc(C#N)c(CN2CCN(C(c3ccc(F)cc3)c3ccc(F)cc3)CC2)c1`, which EC50 (Hepatitis C virus [1]) is on record?
The EC50 was greater than 20 µM.

And the CC50 at 96 h [2]?
Its CC50 at 96 h is 6.45 µM.

Which results are given for `CN1CCCN(c2ccc(C(F)(F)F)c(CN3CCN(c4ccc(Cl)cc4)CC3)c2)CC1`?
EC50 (Hepatitis C virus [1]): 0.003 µM; selectivity ratio [3]: 855; CC50 at 96 h [2]: 2.56 µM

For `CN1CCCN(c2ccc(C#N)c(CN3CCN(C(c4ccccc4)c4ccc(Cl)cc4)CC3)c2)CC1` (stereo not given), which Activity [4] is on record?
The Activity was “inactive”.

What about the Activity (Hepatitis C virus [5]) of the same compound?
Its Activity is “inactive”.

And the Cmax [6]?
The Cmax was 97.9 ng/mL.

And the concentration at 24 h [7]?
Its concentration at 24 h is 6.06 ng/mL.

What about the CC50 at 96 h [8] of the same compound?
The CC50 at 96 h was 5.22 µM.

What about the Activity (Hepatitis C virus [9]) of the same compound?
The Activity was “Active”.

And the EC50 (Hepatitis C virus [10])?
Its EC50 is 0.00333 µM.

What about the Tmax [11] of the same compound?
The Tmax was 5.33 h.

And the EC50 (Hepatitis C virus [1])?
Its EC50 is 0.004 µM.

And the Activity (Hepatitis C virus [12])?
The Activity was “Active”.

And the Activity (Hepatitis C virus [13])?
Its Activity is “inactive”.

And the Activity (Hepatitis C virus [14])?
The Activity was “Active”.

And the Activity (Hepatitis C virus [15])?
Its Activity is “Active”.

What about the EC50 (Hepatitis C virus [16]) of the same compound?
The EC50 was greater than 1.6 µM.

What about the selectivity ratio [3] of the same compound?
Its selectivity ratio is 1930.

And the MRT [17]?
Its MRT is 8.59 h.

What about the half-life [18] of the same compound?
Its half-life is 4.87 h.

What about the CC50 at 96 h [19] of the same compound?
The CC50 at 96 h was 3.72 µM.

And the Activity (Hepatitis C virus [20])?
The Activity was “inactive”.

And the AUC(0-inf) [21]?
Its AUC(0-inf) is 848 ng·h/mL.

And the Activity (Hepatitis C virus [22])?
The Activity was “inactive”.

And the CC50 at 96 h [2]?
Its CC50 at 96 h is 7.34 µM.

What about the Activity (Hepacivirus hominis) of the same compound?
Its Activity is “Active”.

What does the source list for `CN(C)CCN(C)c1ccc(C#N)c(CN2CCN(Cc3ccc(Cl)cc3)CC2)c1`?
EC50 (Hepatitis C virus [1]): 1.04 µM; selectivity ratio [3]: 17; CC50 at 96 h [2]: 18.1 µM

Which results are given for `CN(C)CCN(C)c1ccc(C#N)c(CN2CCN([C@@H](c3ccccc3)c3ccc(Cl)cc3)CC2)c1`?
EC50 (Hepatitis C virus [1]): 0.016 µM; selectivity ratio [3]: 549; CC50 at 96 h [2]: 8.78 µM

What does the source list for `CN(C)CCN(C)c1ccc(C#N)c(CN2CCN(C(=O)c3ccc(Cl)cc3)CC2)c1`?
EC50 (Hepatitis C virus [1]): 12.2 µM; CC50 at 96 h [2]: 10.1 µM

Which results are given for `N#Cc1ccc(NCCCn2ccnc2)cc1CN1CCN(C(c2ccc(F)cc2)c2ccc(F)cc2)CC1`?
EC50 (Hepatitis C virus [1]): 0.162 µM; selectivity ratio [3]: 36; CC50 at 96 h [2]: 5.89 µM

With `CN1CCCN(c2ccc(C#N)c(CN3CCN(C(=O)c4ccc(Cl)cc4)CC3)c2)CC1` as the compound, how does the EC50 (Hepatitis C virus [1]) read?
The EC50 was greater than 4 µM.

And the CC50 at 96 h [2]?
Its CC50 at 96 h is 9.7 µM.

From ChEMBL document CHEMBL5038651, “Design, Synthesis, and Biological Evaluation of 2-((4-Bisarylmethyl-piperazin-1-yl)methyl)benzonitrile Derivatives as HCV Entry Inhibitors” (J Med Chem, 2022)
